Data published in US5674432A, “Photochromic naphthopyran compounds” (Transitions Optical, Inc., priority 1995, dated 1997).

Tests used:
[1] = cited from earlier work
[2] = lambda max (UV) in diethylene glycol dimethyl ether solution by UV spectrophotometer; type: physicochemical; set-up: unit not given here; conditions: approximately 0.5 milligram per milliliter, wavelength in the ultraviolet range closest to the visible spectrum
Experimental: The compounds of the Examples and the Comparative Examples were dissolved in diethylene glycol dimethyl ether. The concentrations of the resulting solutions were approximately 0.5 milligram per milliliter. Each solution was tested in a UV spectrophotometer to determine the lambda max (U/V). The lambda max (UV) reported in Table 1 for each of the Examples is the wavelength in the ultraviolet range closest to the visible spectrum.

[3] = lambda max (VIS) of the activated (colored) form in a homopolymer of diethylene glycol bis(allyl carbonate); type: physicochemical
Experimental: (§1) Testing was done with selected photochromic naphthopyrans imbibed into test square polymerizates by a thermal transfer process. The test square polymerizates were prepared from a homopolymer of diethylene glycol bis(allyl carbonate) and measured 1/8 inch (0.3 centimeters)×2 inches (5.1 centimeters)×2 inches (5.1 centimeters). The test squares were imbibed by the following procedure. Each naphthopyran was dissolved .into toluene to form a 4 weight percent solution of the compound. A piece of No.4 Whatman filter paper was saturated with the naphthopyran toluene solution and allowed to air dry. The dried filter paper was placed on one side of the test square. A piece of untreated filter paper was placed on the other side of the polymeric test square and the resulting sandwich was placed between two flat aluminum metal plates. The entire assembly was then placed in an oven kept at 135° to 155° C. for a time sufficient to thermally transfer the naphthopyran into the polymeric test square. After cooling, each test square was washed with acetone.
The photochromic test squares of Part B were tested for photochromic response rates on an optical bench. Prior to testing on the optical bench, the photochromic test squares were exposed to 365 nanometer ultraviolet light for about 15 minutes to activate the photochromic compounds and then placed into a 76° C. oven for about 15 minutes to bleach or inactivate the photochromic compounds. The test squares were then cooled to room temperature, exposed to fluorescent room lighting for at least 2 hours and then kept covered for at least 2 hours prior to testing on an optical bench maintained at 75° F. (23.9° C.).
(§2) The optical bench comprises a 150 watt Xenon arc lamp, a tungsten lamp, power supplies for both lamps, condensing lenses as needed to maintain collimated light beams from both lamps, a remote controlled shutter, a copper sulfate bath acting as a heat sink for the arc lamp, a Schott WG-320 nm cut-off filter which removes short wavelength radiation, neutral density filter(s), a sample holder in which the sample to be tested is inserted, a photopic filter, light detector, and radiometer assembly, a strip chart recorder, and a means for maintaining the alignment of the aforestated components during testing.
(§3) The ΔOD/Min, which represents the sensitivity of the photochromic compound's response to UV light, was measured over the first five (5) seconds of UV exposure, then expressed on a per minute basis. The saturation optical density (OD) was taken under identical conditions as the ΔOD/Min, except UV exposure was continued for 20 minutes. The lambda max (VIS) reported in Table 2 is the wavelength in the visible spectrum at which the maximum absorption of the activated (colored) form of the photochromic compound in a homopolymer of diethylene glycol bis(allyl carbonate) occurs. The bleach rate (T 1/2) is the time interval in seconds for the absorbance of the activated form of the naphthopyran in the test squares to reach one half the highest absorbance at room temperature (75° F., 23.9° C.) after removal of the source of activating light.

[4] = photochromic response on an optical bench (sensitivity, saturation optical density, bleach rate) of imbibed test squares; type: physicochemical; conditions: for OD @ SATURATION: UV exposure continued for 20 minutes; for OD @ SATURATION / Δ OD/Min SENSITIVITY: 75° F. (23.9° C.); for Δ OD/Min SENSITIVITY: first five (5) seconds of UV exposure, expressed per minute; for BLEACH RATE T1/2: time for absorbance of activated form to reach one half the highest absorbance at room temperature (75° F., 23.9° C.) after removal of activating light
Experimental: as §1, with “The entire assembly was then placed in an oven kept at 135° to 155° C. for a time sufficient to thermally transfer the naphthopyran into the polymeric test square.” left out
The photochromic test squares of Part B were tested for photochromic response rates on an optical bench.
as §2
Change in optical density (ΔOD) of a sample was determined by inserting a photochromic test sample in the bleached state into the sample holder, adjusting the transmittance scale to 100%, opening the shutter from the Xenon lamp to provide ultraviolet radiation to change the sample from the bleached state to an activated (darkened) state, measuring the transmittance through the sample. The transmittance was measured by directing a beam of light from the tungsten lamp at a small angle normal to the surface of the sample, through the sample, and to a photopic filter, light detector and radiometer assembly. The photopic filter passes wavelengths such that the detector mimics the response of the human eye and produces output signals that are processed by the radiometer. The change in optical density was calculated according to the formula ΔOD=log(100/% Ta) where % Ta is the percent transmittance in the activated state and the logarithm is to the base 10.
as §3, with “occurs.” for “occurs. The bleach rate (T 1/2) is the time interval in seconds for the absorbance of the activated form of the naphthopyran in the test squares to reach one half the highest absorbance at room temperature (75° F., 23.9° C.) after removal of the source of activating light.”

[5] = vs 3,3-diphenyl-3H-naphtho[2,1-b]pyran and 5-, 7- or 9-methoxy compounds, U.S. Pat. No. 5,238,981

SMILES | Lambda max (UV) [2] | LAMBDA MAX (VIS) [3] [nm] | OD @ SATURATION [4] | Δ OD/Min SENSITIVITY [4] | BLEACH RATE T1/2 [4] [min] | further results
C1=CC(c2ccccc2)(c2ccccc2)Oc2ccc3ccccc3c21 [Comparative Example 1, 3,3-diphenyl-3H-naphtho[2,1-b]pyran, reference compound] | 359 | 430 | 0.36 | 0.87 Δ OD/Min | 0.75 | optical density at saturation ([1]; at room temperature and above): too low for use in optical applications; optical density change on exposure to ultraviolet light ([1]; at room temperature and above): changes too slowly; sensitivity on exposure to ultraviolet light ([1]; at room temperature and above): low
Cc1coc2ccc3c4c(ccc3c12)OC(c1ccccc1)(c1ccccc1)C=C4 [Example 7, 7,7-diphenyl-7H-3-methylfuro[3',2',:5,6]naphtho[2,1-b]pyran] | 372 | – | – | – | – | –
COc1ccc(C2(c3ccc(OC)cc3OC)C=Cc3c(ccc4c3ccc3oc(C)cc(=O)c34)O2)cc1 (stereo not drawn) [Example 10, 9-(2,4-dimethoxyphenyl)-9-(4'-methoxyphenyl)-3-methyl-1H,9H-naphtho[2,1-b:6,5-b']dipyran-1-one] | 384 | – | – | – | – | –
C1=CC(c2ccccc2)(c2ccccc2)Oc2ccc3c4c(ccc3c21)OCCC4 [Example 8, 9,9-diphenyl-3H,9H-1,2-dihydronaphtho[2,1-b:6,5-b']dipyran] | 382 | – | – | – | – | –
CC1Cc2c(ccc3c4c(ccc23)OC(c2ccccc2)(c2cccc(C(F)(F)F)c2)C=C4)O1 (stereo not drawn) [Example 3, 7-(phenyl)-7-(3-trifluoromethylphenyl)-7H-2-methyl-2,3-dihydrofuro[3',2',:5,6]naphtho[2,1-b]pyran] | 396 | 494 | 0.74 | 1.38 Δ OD/Min | 2.18 | –
COc1ccc(C2(c3ccccc3F)C=Cc3c(ccc4c5c(ccc34)OC(C)C5)O2)cc1 (stereo not drawn) [Example 6, 7-(2-fluorophenyl)-7-(4-methoxyphenyl)-7H-2-methyl-2,3-dihydrofuro[3',2',:5,6]naphtho[2,1-b]pyran] | 393 | – | – | – | – | –
COc1cccc(C2(c3ccccc3)C=Cc3c(ccc4c5c(ccc34)OC(C)C5)O2)c1 (stereo not drawn) [Example 5, 7-(phenyl)-7-(3-methoxyphenyl)-7H-2-methyl-2,3-dihydrofuro[3',2',:5,6]naphtho[2,1-b]pyran] | 395 | 495 | 0.74 | 1.43 Δ OD/Min | 2.75 | –
COc1ccc(C2(c3ccc(OC)cc3OC)C=Cc3c(ccc4c3ccc3oc(=O)cc(C)c34)O2)cc1 (stereo not drawn) [Example 9, 9-(2,4-dimethoxyphenyl)-9-(4'-methoxyphenyl)-1-methyl-3H,9H-naphtho[2,1-b:6,5-b']dipyran-3-one] | 396 | – | – | – | – | –
CC1Cc2c(ccc3c4c(ccc23)OC(c2ccccc2)(c2ccccc2)C=C4)O1 (stereo not drawn) [Example 2, 7,7-diphenyl-7H-2-methyl-2,3-dihydrofuro[3',2',:5,6]naphtho[2,1-b]pyran] | 394 | 488 | 0.66 | 1.35 Δ OD/Min | 1.77 | –
Cc1cccc(C2(c3ccccc3)C=Cc3c(ccc4c5c(ccc34)OC(C)C5)O2)c1 (stereo not drawn) [Example 1, 7-(phenyl)-7-(3-methylphenyl)-7H-2-methyl-2,3-dihydrofuro[3',2',:5,6]naphtho[2,1-b]pyran] | 394 | – | – | – | – | –
CC1Cc2c(ccc3c4c(ccc23)OC(c2ccccc2)(c2cccc(F)c2)C=C4)O1 (stereo not drawn) [Example 4, 7-(phenyl)-7-(3-fluorophenyl)-7H-2-methyl-2,3-dihydrofuro[3',2',:5,6]naphtho[2,1-b]pyran] | 394 | 489 | 0.76 | 1.44 Δ OD/Min | 1.82 | –
COc1ccc2c3c(ccc2c1)OC(c1ccccc1)(c1ccccc1)C=C3 [Comparative Example 2, 3,3-diphenyl-8-methoxy-3H-naphtho[2,1-b]pyran, reference compound] | 376 | 473 | 0.73 | 1.25 Δ OD/Min | 1.45 | lambda max (UV), in words ([1]; near visible threshold range about 390 to 410 nanometers, U.S. Pat. No. 5,238,981): shifted towards the near visible threshold range; optical density at saturation, comparison in words [1, 5]: enhanced sensitivity and optical density at saturation; sensitivity, comparison in words [1, 5]: enhanced sensitivity
